Measured values: patent US7772271B2 (priority 2004, dated 2010)
pIC50: −log10 of the molar value. Read-outs that look alike come from different tables or passages of the source.

Experiments:
PV IRES = test: cells; type: cell-based, poliovirus; settings: for pIC50: read-out: WTPV mono luc IC50; for IC50: Enterovirus C, HEK-293T, 20 h, read-out: WTPV mono luc IC50 (μM)
wild-type poliovirus = type: cell-based
[1] = 1 μM compound, Hela cells infected with wild-type poliovirus at MOI 0.1, treated for one day, CPE score
[2] = 10 μM compound, Hela cells infected with wild-type poliovirus at MOI 0.1, treated for one day, CPE score
[3] = 100 μM compound, Hela cells infected with wild-type poliovirus at MOI 0.1, treated for one day, CPE score

COc1ccc(-n2cc(C#N)c3ccc(OC)cc32)cc1 [compound 4]
pIC50 (PV IRES): 6.10
WT-PV CPE (1 μM)* (wild-type poliovirus): 1
WT-PV CPE (10 μM)* (wild-type poliovirus): 2
WT-PV CPE (100 μM)* (wild-type poliovirus): 3

CCn1cc(C#N)c2ccc(OC)cc21 [compound 5, 1-ethyl-6-methoxy-1H-indole-3-carbonitrile]
IC50 (PV IRES): 9 µM
WT-PV CPE (1 μM)* (wild-type poliovirus; [1]): 1
WT-PV CPE (10 μM)* (wild-type poliovirus; [2]): 2
WT-PV CPE (100 μM)* (wild-type poliovirus; [3]): 3

CCOc1ccc2c(C#N)cn(CC)c2c1 [compound 9, 6-ethoxy-1-ethyl-1H-indole-3-carbonitrile]
IC50 (PV IRES): > 100 µM
WT-PV CPE (1 μM)* (wild-type poliovirus; [1]): 2
WT-PV CPE (10 μM)* (wild-type poliovirus; [2]): 2
WT-PV CPE (100 μM)* (wild-type poliovirus; [3]): 3

CCn1cc(C#N)c2ccc(OC(C)C)cc21 [compound 10]
pIC50 (PV IRES): < 4.00
WT-PV CPE (1 μM)* (wild-type poliovirus): 2
WT-PV CPE (10 μM)* (wild-type poliovirus): 2
WT-PV CPE (100 μM)* (wild-type poliovirus): 3

CCn1c(-c2ccc(OC)cc2)c(C#N)c2ccc(OC)cc21 [compound 19]
pIC50 (PV IRES): 4.82
WT-PV CPE (1 μM)* (wild-type poliovirus): 1
WT-PV CPE (10 μM)* (wild-type poliovirus): 2
WT-PV CPE (100 μM)* (wild-type poliovirus): 3

COc1ccc2c(C#N)c(C)n(-c3ccc4c(c3)OCO4)c2c1 [compound 24]
pIC50 (PV IRES): 5.82
WT-PV CPE (1 μM)* (wild-type poliovirus): 2
WT-PV CPE (10 μM)* (wild-type poliovirus): 2
WT-PV CPE (100 μM)* (wild-type poliovirus): 3

Cc1cc(Nc2ccc(-c3c(C#N)c4ccc(Oc5ncccn5)cc4n3C3CCC3)cc2)n(C)n1 [compound 3285, 1-cyclobutyl-2-[4-(2,5-dimethyl-2H-pyrazol-3-ylamino)-phenyl]-6-(pyrimidin-2-yloxy)-1H-indole-3-carbonitrile]
melting point: 236 to 238 °C
